This is an account of results in publication PMC6237158, “HPLC–UV assay for the evaluation of inhibitors of plasma amine oxidase using crude bovine plasma” (Journal of Enzyme Inhibition and Medicinal Chemistry, 2018).

For the test, the target named is T1, PAO in bovine plasma (Bos taurus, UniProt Q29437).
T1 construct: crude bovine plasma can be used as enzyme source in this assay instead of the purified enzyme; tissue Coesfelder Fleischhandelsgesellschaft, Bernd Grewe (Coesfeld, Germany); host or cells: heparinised bovine blood plasma
T1 sequence (Q29437 17-762): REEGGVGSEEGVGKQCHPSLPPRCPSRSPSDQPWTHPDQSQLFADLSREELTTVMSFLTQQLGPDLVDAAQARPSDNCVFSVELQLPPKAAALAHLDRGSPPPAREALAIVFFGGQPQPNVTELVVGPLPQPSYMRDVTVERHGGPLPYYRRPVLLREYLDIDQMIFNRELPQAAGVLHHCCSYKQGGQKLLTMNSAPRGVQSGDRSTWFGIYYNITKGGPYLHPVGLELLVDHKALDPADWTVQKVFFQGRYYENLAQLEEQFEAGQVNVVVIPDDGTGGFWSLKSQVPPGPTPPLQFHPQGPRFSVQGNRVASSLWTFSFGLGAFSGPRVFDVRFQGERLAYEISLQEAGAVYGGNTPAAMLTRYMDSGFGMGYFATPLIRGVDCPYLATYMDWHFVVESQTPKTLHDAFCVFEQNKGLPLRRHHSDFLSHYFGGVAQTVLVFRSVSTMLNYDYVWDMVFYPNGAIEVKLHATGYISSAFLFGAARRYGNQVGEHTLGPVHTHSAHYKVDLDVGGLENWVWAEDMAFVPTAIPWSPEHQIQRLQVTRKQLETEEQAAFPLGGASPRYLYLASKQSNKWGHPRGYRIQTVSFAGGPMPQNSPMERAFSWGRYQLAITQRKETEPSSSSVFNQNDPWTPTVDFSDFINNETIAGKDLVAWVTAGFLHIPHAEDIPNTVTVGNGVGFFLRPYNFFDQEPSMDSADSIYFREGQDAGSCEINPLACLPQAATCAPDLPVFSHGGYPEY
Nature of the test: Inhibitor screening with pre-incubation of bovine plasma with the inhibitor (HPLC-UV). Particulars: with pre-incubation of enzyme and inhibitor (15 min, 37 °C), n = 3. It counts as biochemical. The protocol: General procedure for inhibitor screening with pre-incubation of bovine plasma with the inhibitor. To a DMSO solution of the appropriate inhibitor (concentration variable) (2.5 µL) was added a dilution of bovine plasma in PBS (95 µL), prepared by mixing 89 volume parts of PBS with 6 volume parts of bovine plasma. The resulting mixture was pre-incubated at 37 °C for 15 min. Then the incubation was started at 37 °C by addition of a solution of the substrate 4 (10 mM) in DMSO (2.5 µL). After 45 min, the enzyme reaction was terminated by the addition of acetonitrile (100 µL). The samples were further treated and analysed as described above in the inhibition experiments done without pre-incubation. Controls (n = 3) and a blank were prepared analogously. The experiments using benzylamine (7) as substrate were carried out in the same way with the modifications that aliquots (150 µL) of the supernatants obtained after addition of acetonitrile and centrifugation were diluted with water (150 µL), and acetonitrile/aqueous ammonium acetate solution (10 mM, pH 6) (45:55, v/v) was used as eluent at a detection wavelength of 250 nm.

`NNC(=O)Cc1ccc(-c2ccccc2)cc1` [Compound 16, 2-(4-phenylphenyl)acetohydrazide]: the half-inhibitory concentration (IC50) reads like this: (substrate benzylamine) 130 ± 30 nM; (substrate hexan-1-amine 4) 230 ± 40 nM.

As usually defined, the IC50 is the concentration that gives 50% inhibition. Read a high IC50 as weaker potency.
